From ChEMBL document CHEMBL1201862, “PubChem BioAssay data set” (2004)
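Five compound concentrations were applied to cells in 96-well plates for 48 hours; endpoints were derived by simple linear interpolation of the resulting dose-response curve. GI50: concentration for 50% inhibition of growth.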 Activity calls are given as the source filed them. Rule as the data show it: active = GI50 up to about 1.1 µM and inactive = higher.

Key:
Assay in all cases: growth of human tumour cells (NCI), 48 h
[1] = test system: Hs-578T
[2] = test system: BT-549
[3] = test system: DLD-1
[4] = test system: LXFL 529
[5] = test system: M19-MEL
[6] = test system: RXF 631
[7] = test system: DMS-114
[8] = test system: HOP-18
[9] = test system: XF498

SMILES | GI50 [1] | GI50 [2] | GI50 [3] | GI50 [4] | GI50 [5] | GI50 [8] | further results
C/C(Cc1ccc2c(c1)OCO2)=N\N=c1\sc2ccccc2n1C | > 100 µM (inactive) | > 100 µM (inactive) | – | – | – | – | –
O=C(CCC(=O)Nc1ccc(Cl)c(Cl)c1)CC(=O)c1ccc2ccccc2c1 | – | – | > 100 µM (inactive) | 42.7 µM (inactive) | > 100 µM (inactive) | > 100 µM (inactive) | GI50 [6]: > 100 µM (inactive); GI50 [7]: 86.5 µM (inactive)
NNc1[nH]c(=S)[nH]c1C(N)=O | > 100 µM (inactive) | > 100 µM (inactive) | – | – | – | – | –
COC(=O)Nc1nc(=O)c2cc(OC)c(OC)cc2[nH]1 | 66.1 µM (inactive) | 15.3 µM (inactive) | – | – | – | – | –
Cc1cccc(Nc2nc3ccccc3nc2NS(=O)(=O)c2ccc(N)cc2)c1 | 49.5 µM (inactive) | 9.42 µM (inactive) | – | – | – | – | –
Cc1cn(C2CC(O)C(Cn3nncc3Cn3cnc4c(N)ncnc43)O2)c(=O)[nH]c1=O (stereo not drawn) | > 100 µM (inactive) | > 100 µM (inactive) | – | – | – | – | –
CC(C)(C)C(=O)OCC1CCC(n2cnc3c(=O)[nH]c(N)nc32)O1 (stereo not drawn) | – | – | – | – | > 100 µM (inactive) | > 100 µM (inactive) | GI50 [9]: > 100 µM (inactive); GI50 [7]: > 100 µM (inactive)
COC(=O)C(=O)C(C(=O)C(=O)Nc1ccc([N+](=O)[O-])cc1[N+](=O)[O-])c1nc2ccc([N+](=O)[O-])cc2nc1O (stereo not drawn) | – | – | > 100 µM (inactive) | > 100 µM (inactive) | > 100 µM (inactive) | 22.1 µM (inactive) | GI50 [6]: > 100 µM (inactive); GI50 [9]: 76.7 µM (inactive); GI50 [7]: > 100 µM (inactive)
C/C(=N/NC(=S)Nc1ccccc1C)c1ccccn1 | 15.7 µM (inactive) | 3.14 µM (inactive) | – | – | – | – | –
N#Cc1sc2c(c1O)c(=O)n(-c1ccccc1)c(=S)n2-c1ccccc1 | > 100 µM (inactive) | > 100 µM (inactive) | – | – | – | – | –
C[Si](C)(C)C1=C2C(=O)c3ccccc3C(=O)C2=C([Si](C)(C)C)[C@@H]2CCCC[C@H]12 | – | > 100 µM (inactive) | – | – | – | – | –
COc1ccc(N2C(=O)C3c4[nH]c5ccccc5c4C4CCCCCCCC4C3C2=O)cc1 (stereo not drawn) | > 10 µM (inactive) | – | – | – | – | – | –
CN(C)/C=N/S(=O)(=O)c1nn2c(C=O)c(-c3ccc([N+](=O)[O-])cc3)nc2s1 | 24.5 µM (inactive) | 3.79 µM (inactive) | – | – | – | – | –
COc1ccc2c(c1)CCCN2S(=O)(=O)c1ccccc1[N+](=O)[O-] | 43.7 µM (inactive) | 9.06 µM (inactive) | – | – | – | – | –
Cn1c(=O)c(-c2ccccc2)c(O)c2ccccc21 | 66.4 µM (inactive) | > 100 µM (inactive) | – | – | – | – | –
Cc1ccc2nnc(NS(=O)(=O)c3cc(C)c(Cl)cc3S)n2n1 | > 100 µM (inactive) | > 100 µM (inactive) | – | – | – | – | –
COC(=O)c1ccc2c(c1)CC1(C2)Cc2ccccc2C1=O (stereo not drawn) | 69.7 µM (inactive) | – | – | – | – | – | –
O=Cc1cc2c(cc1-c1cc3c(cc1C=O)OCO3)OCO2 | – | – | 50.4 µM (inactive) | > 100 µM (inactive) | 56.8 µM (inactive) | > 100 µM (inactive) | GI50 [7]: > 100 µM (inactive)
COC1/C=C/C(C)C(C(C)C(OC)C(C)CCC(=O)C(C)C(CCC(=O)O)OC)OC(=O)/C=C/C=C(\C)CC(OC)CC2=CC(=O)O[C@@H](C(C)C(OC)CC(OC)/C=C/C(C)C(OC)C1)[C@H]2O (stereo partly drawn) | 0.499 µM (active) | 0.661 µM (active) | – | – | – | – | –
O=C(c1ccccc1)c1c(CC(O)c2ccncc2)n(C(=O)c2ccccc2)c2ccccc12 (stereo not drawn) | – | – | 26.2 µM (inactive) | 18.8 µM (inactive) | 17.9 µM (inactive) | – | GI50 [7]: 16.9 µM (inactive)
CN(C(=O)c1ccco1)C(=S)N1CCN(c2ccccn2)CC1 | – | – | > 100 µM (inactive) | > 100 µM (inactive) | > 100 µM (inactive) | > 100 µM (inactive) | GI50 [9]: > 100 µM (inactive)
c1ccc(COC2C3COC(O3)C(OCc3ccccc3)C2OCc2ccccc2)cc1 (stereo not drawn) | 31.4 µM (inactive) | > 100 µM (inactive) | – | – | – | – | –
Cc1cc(C#N)c(Nc2ccc(F)cc2[N+](=O)[O-])s1 | – | 24.4 µM (inactive) | – | – | – | – | –
COc1ccc(Sc2ccccc2[N+](=O)[O-])cc1 | – | – | 24.8 µM (inactive) | 27.5 µM (inactive) | 7.23 µM (inactive) | > 100 µM (inactive) | GI50 [6]: 9.75 µM (inactive)
CC1=C2N3C[C@@H](n4c(=O)n(C)c(=O)n43)C23CCC1n1c(=O)n(C)c(=O)n13 | – | – | 69.2 µM (inactive) | 85.1 µM (inactive) | > 100 µM (inactive) | > 100 µM (inactive) | GI50 [9]: > 100 µM (inactive); GI50 [7]: 30.8 µM (inactive)
O=C1CCCC/C1=C\c1ccc(Cl)c(Cl)c1 | – | – | 23.2 µM (inactive) | 17.1 µM (inactive) | 20.7 µM (inactive) | 18.8 µM (inactive) | GI50 [7]: 18.7 µM (inactive)
CNc1ccc([N+](=O)[O-])cc1C(=O)N1CCC[C@H]1CO | > 100 µM (inactive) | > 100 µM (inactive) | – | – | – | – | –
CCCCCCCCCc1cc(O)c(O)cc1CCCCCCCCC | > 10 µM (inactive) | > 10 µM (inactive) | – | – | – | – | –
Fc1cccc(Cl)c1C1SCc2nc3ccccc3n21 (stereo not drawn) | – | – | 28.8 µM (inactive) | 35.9 µM (inactive) | 26.1 µM (inactive) | 29.7 µM (inactive) | GI50 [6]: 25.3 µM (inactive); GI50 [9]: 27.7 µM (inactive); GI50 [7]: 20.7 µM (inactive)
